From patent US20230241044A1, “TREATMENT FOR PSORIASIS AND SKIN INFLAMMATORY DISEASES” (ZYDUS LIFESCIENCES LIMITED, priority 2020, published 2023)

How the values were obtained:
[1] = clinical trials; cited from earlier work
[2] = test system: Mannan-induced psoriasis in mice; experiment: Mannan-induced psoriasis in mice, topical treatment; type: in vivo, male C57 mice; conditions: topical 2.5% solution, day 5, FIG. 3
Protocol: The 8- to 10-week-old male C57 mice (18-20 g) received a single dose of mannan from Saccharomyces cerevisiae (20 mg/kg, intraperitoneal route, dissolved in saline). To examine the efficacy of topical solution of desidustat, mice were randomly divided into 3 groups: Normal control, mannan control- model group (MAN control), and mannan (MAN) + 2.5% compound of formula (Ia) solution. Normal control animals were given normal saline instead of mannan. Treatment was started on day 0 along with injection of mannan and continued up to day 5. Right ear thickness was measured every day using thickness meter.

HIF = conditions: animal model of anemia; Jain et al., 2019; Joharapurkar et al., 2018; cited from earlier work
[3] = test system: IMQ-induced psoriasis-like skin lesions in mice; experiment: Imiquimod-induced psoriasis in mice, topical treatment; type: in vivo, male C57 mice; conditions: topical 5% solution
Protocol: The 8 to 10 week old male C57 mice (18-20 g) received a daily topical dose of commercially available Imiquimod (IMQ) cream (5%, Imiquad;) on the shaved back and the right ear for 5 consecutive days, translating in a daily dose of 3.125 mg of the active compound to establish a model of IMQ-induced psoriasis. To examine the efficacy of topical solution of compound of formula (Ia), mice were randomly divided into 3 groups: IMQ-induced model group (IMQ) and IMQ + 5% compound of formula (Ia) solution and control group. Treatment was started on day 1 after the topical application of IMQ and continued upto day 5. All animals were assessed for the severity of the psoriasis-like skin condition, using 3 elements of the Psoriasis Area Severity Index (PASI), to assign a score of 0-4 (0, none; 1, mild; 2, moderate; 3, severe; 4, very severe) for each of the parameters erythema, scaling and thickness. The cumulative score (erythema plus scaling plus thickness) served to indicate the severity of inflammation (scale 0-12). Ear thickness was measured every day using thickness meter.

For `O=C(O)CNC(=O)c1c(O)c2ccccc2n(OCC2CC2)c1=O` [compound of formula (Ia), Desidustat], the effect on haemoglobin [1] is listed as “improves haemoglobin”, the “reduction of right ear thickness compared to MAN control group” value [2] is listed as 15.8 ± 2.5% and the “effect on HIF and erythropoiesis” value (HIF) is listed as “stabilizes HIF and thus induces erythropoiesis”. The “reduction of back skinfold thickness compared to IMQ” value ([3]; FIG. 2B) was 15.5 ± 4.0%, the “PASI score decreased to, compared with IMQ-control” value ([3]; cumulative score, FIG. 1D) was 41.9 ± 7.6% and the “reduction of erythema score (second mention) compared with IMQ-control” value ([3]; day 1 to day 5, FIG. 1A-C) was 63.6 ± 11.5%. The “reduction of erythema score compared with IMQ-control” value ([3]; day 1 to day 5, FIG. 1A-C) was 46.2 ± 7.7%, the “reduction of skin thickness score compared with IMQ-control” value ([3]; day 1 to day 5, FIG. 1A-C) was 26.3 ± 10.4% and the “thickening of the ear reduced to, compared to IMQ-control” value ([3]; right ear, FIG. 2A) was 30.8 ± 2.6%.
